Experimental data as given in the supplement of paper PMC10307832.

Assays:
Experiment in all cases: relative viability (nuclei count vs DMSO), 5 days (fraction); higher = more cells survive
[1] = compound: CCOC(=O)CCNc1cc(N2CCc3ccccc3CC2)nc(-c2ccccn2)n1 [GSK-J4] + Cc1cc(Nc2cc(N3CCN(C)CC3)nc(Sc3ccc(NC(=O)C4CC4)cc3)n2)n[nH]1 [Tozasertib] (partner 0.1 µM)
Procedure, shortened: (§1)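 Five library-drug doses in √10 steps were combined with a fixed anchor-drug dose, or a single drug was given alone, by pin tool to lung cancer cell lines in 1536-well plates the day after seeding. Nuclei were stained and counted after 5 days. Relative viability is the nuclei count in treated wells over that in vehicle wells, taken as the median of duplicate plates.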

[2] = compound: CCOC(=O)CCNc1cc(N2CCc3ccccc3CC2)nc(-c2ccccn2)n1 [GSK-J4] + O=C(c1cc(Cc2n[nH]c(=O)c3ccccc23)ccc1F)N1CCN(C(=O)C2CC2)CC1 [Olaparib] (partner 8 µM)
Procedure, shortened: as §1

[3] = compound: CCOC(=O)CCNc1cc(N2CCc3ccccc3CC2)nc(-c2ccccn2)n1 [GSK-J4] + CC(C)C[C@H](NC(=O)[C@H](Cc1ccccc1)NC(=O)c1cnccn1)B(O)O [Bortezomib] (partner 0.002 µM)
Procedure, shortened: as §1

[4] = compound: CCOC(=O)CCNc1cc(N2CCc3ccccc3CC2)nc(-c2ccccn2)n1 [GSK-J4] + CS(=O)(=O)CCNCc1ccc(-c2ccc3ncnc(Nc4ccc(OCc5cccc(F)c5)c(Cl)c4)c3c2)o1 [Lapatinib] (partner 2 µM)
Procedure, shortened: as §1

Row | Cell Line | relative viability ([1]; first compound 0.5 µM) | relative viability ([1]; first compound 1.581 µM) | relative viability ([1]; first compound 5 µM) | relative viability ([1]; first compound 15.81 µM) | relative viability ([1]; first compound 50 µM) | relative viability ([2]; first compound 0.5 µM) | relative viability ([2]; first compound 1.581 µM) | relative viability ([2]; first compound 15.81 µM) | relative viability ([2]; first compound 50 µM) | relative viability ([3]; first compound 0.5 µM) | relative viability ([3]; first compound 1.581 µM) | relative viability ([3]; first compound 15.81 µM) | relative viability ([3]; first compound 50 µM) | relative viability ([4]; first compound 0.5 µM) | relative viability ([4]; first compound 1.581 µM) | relative viability ([4]; first compound 15.81 µM) | relative viability ([4]; first compound 50 µM) | relative viability ([3]; first compound 5 µM) | relative viability ([4]; first compound 5 µM) | relative viability ([2]; first compound 5 µM)
1 | NCI-H522 | 0.541 | 0.608 | 0.502 | 0.515 | 0.485 | 0.597 | 0.552 | 0.531 | 0.409 |  |  |  |  |  |  |  |  |  |  | 
2 | HCC-366 | 0.138 | 0.0869 |  | 0.083 | 0.0821 | 0.362 | 0.308 | 0.37 | 0.285 | 1 | 1.02 | 1.01 | 0.96 | 0.969 | 0.786 | 0.937 | 0.602 |  |  | 
3 | A-427 | 0.233 |  | 0.22 | 0.18 | 0.157 | 0.714 | 0.701 | 0.66 | 0.295 | 0.937 |  | 0.781 | 0.789 | 1.05 |  | 0.976 | 0.847 | 0.839 | 0.913 | 
4 | NCI-H2347 | 0.573 | 0.452 | 0.534 |  | 0.476 | 0.587 | 0.597 | 0.675 | 0.437 | 0.827 | 0.818 | 0.958 | 0.818 | 0.841 | 0.573 | 0.963 | 0.664 | 0.827 | 0.753 | 0.554
5 | NCI-H1792 |  |  |  |  |  | 0.45 | 0.286 | 0.429 | 0.341 | 0.963 | 0.724 | 0.909 | 1.02 | 0.932 | 0.705 | 0.782 | 0.692 | 0.915 | 0.835 | 0.309
6 | SK-LU-1 | 0.306 | 0.28 | 0.289 | 0.326 | 0.276 | 0.433 | 0.465 | 0.428 | 0.309 | 1.02 | 1.06 | 0.8 | 0.902 | 0.758 | 0.776 | 0.616 | 0.585 | 0.705 | 0.668 | 0.429
7 | RERF-LC-KJ | 0.415 | 0.428 | 0.483 | 0.493 | 0.357 | 0.867 | 0.928 | 0.814 | 0.484 | 0.989 | 0.993 | 1.11 | 0.963 | 0.843 | 0.802 | 0.788 | 0.734 | 1.04 | 0.749 | 0.867
8 | NCI-H1993 | 0.51 | 0.562 | 0.646 | 0.503 | 0.497 | 1.21 | 0.885 | 0.952 | 1.01 | 1.18 | 1.24 | 0.878 | 0.812 | 0.837 | 0.878 | 0.808 | 0.671 | 1.19 | 0.927 | 1.1
9 | NCI-H1734 | 0.266 | 0.251 | 0.26 | 0.246 | 0.259 | 0.652 | 0.549 | 0.582 | 0.333 | 0.795 | 0.878 | 0.725 | 0.783 | 0.977 | 0.802 | 0.893 | 0.725 | 0.738 | 0.74 | 0.551
10 | HCC-44 | 0.809 | 0.803 |  | 0.646 | 0.688 | 0.945 | 0.945 | 1.08 | 0.906 | 0.842 | 0.86 | 0.892 | 0.934 | 0.964 | 0.647 | 1.07 | 0.957 | 0.916 | 0.909 | 0.999
11 | NCI-H1944 | 0.257 | 0.238 | 0.248 | 0.243 | 0.255 | 0.389 | 0.373 | 0.376 | 0.358 |  |  |  |  | 0.8 | 0.795 | 0.665 | 0.787 |  | 0.78 | 
12 | HCC-78 | 0.426 | 0.401 | 0.494 | 0.379 | 0.348 | 0.688 | 0.774 | 0.656 | 0.742 | 0.442 | 0.509 | 0.422 | 0.491 | 0.707 | 0.684 |  | 0.738 | 0.565 | 0.846 | 1.1
13 | NCI-H838 | 0.299 | 0.26 |  | 0.26 | 0.21 | 0.696 | 0.653 | 0.568 | 0.411 | 0.978 | 0.483 | 0.769 | 0.792 | 1.25 | 0.748 | 0.938 | 0.858 |  |  | 0.514
14 | SW 1573 | 0.206 | 0.129 | 0.164 | 0.199 | 0.177 | 0.471 | 0.365 | 0.354 | 0.153 | 0.872 | 0.724 | 1.07 | 0.898 | 1.05 | 1.05 | 0.865 | 1.02 | 1.08 | 0.728 | 0.486
15 | NCI-H1623 | 0.437 | 0.467 | 0.455 | 0.435 | 0.451 |  |  |  |  |  |  |  |  |  |  |  |  |  |  | 
16 | ChaGo-K-1 | 0.221 | 0.213 | 0.236 | 0.236 | 0.21 | 0.384 |  | 0.354 | 0.275 | 1.21 |  | 0.972 | 0.931 |  |  |  |  | 0.913 |  | 0.441
17 | LCLC-97TM1 | 0.322 | 0.187 | 0.226 | 0.146 | 0.165 | 0.272 | 0.373 | 0.293 | 0.196 | 0.981 |  | 0.449 | 0.526 |  |  | 0.722 | 0.885 | 0.393 | 1.33 | 0.364
18 | COR-L 105 | 0.311 | 0.371 | 0.36 | 0.394 | 0.387 | 0.701 |  | 0.672 | 0.764 | 0.851 | 0.521 | 0.734 | 0.856 | 0.398 | 0.317 | 0.319 | 0.35 | 0.605 | 0.35 | 0.641
19 | NCI-H1666 | 0.606 | 0.499 | 0.635 | 0.534 | 0.502 | 0.684 | 0.676 | 0.746 | 0.699 | 0.776 |  | 0.66 | 0.495 | 0.576 |  | 0.567 | 0.382 | 0.84 | 0.7 | 0.786
